The text below walks through data of patent US5968987A, “Halofantrine free base for the treatment of malaria and compositions” (priority 1994, dated 1999).

A short description of data set [1]: physchem. Format: physicochemical. The source says: The following data and examples serve to illustrate the invention.
For data set [2] the following is noted: in words, background; cited from earlier work.
The conditions of data set [3]: in words, background; cited from earlier work. The source holds these as a separate data set.
For data set [4], the system named is malarial infections. The conditions noted are these: in words, background; cited from earlier work.

The structures appear in SMILES notation. Structures can show the parent of a compound that is named as a salt.

Turning to `CCCCN(CCCC)CCC(O)c1cc2c(Cl)cc(Cl)cc2c2cc(C(F)(F)F)ccc12` (centres unmarked) [amorphous halofantrine free base], the solubility in data set [1] (peanut oil, organic solvent or mixture, miscible/soluble with peanut oil) is > 400000 µg/mL.
As for `CCCCN(CCCC)CCC(O)c1cc2c(Cl)cc(Cl)cc2c2cc(C(F)(F)F)ccc12` (centres unmarked) [crystalline halofantrine free base], in data set [1] (triglycerides, organic solvent or mixture, solubility in triglycerides), the solubility is > 80000 µg/mL.
With `CCCCN(CCCC)CCC(O)c1cc2c(Cl)cc(Cl)cc2c2cc(C(F)(F)F)ccc12` (centres unmarked) [halofantrine free base], the “lipid solubility and miscibility” value in data set [1] was “unexpectedly high”.
Turning to `CCCCN(CCCC)CCC(O)c1cc2c(Cl)cc(Cl)cc2c2cc(C(F)(F)F)ccc12` (centres unmarked) [halofantrine hydrochloride], the solubility in data set [1] (aqueous solutions, solubility in aqueous solutions) was ~1 µg/mL; in data set [1] (peanut oil, organic solvent or mixture, solubility in a triglyceride lipid such as peanut oil), < 1000 µg/mL. Besides, the “aqueous and lipid solubility” value in data set [2] was “poor”. In data set [3], the “absorption after oral administration” value was “poor and often variable”. Moreover, the “effectiveness in the treatment of malarial infections” value in data set [4] was “very effective”.

The solubility is how much of the substance goes into solution per volume.
